Data reported in ChEMBL document CHEMBL3580582, “The Cephalostatins. 23. Conversion of Hecogenin to a Steroidal 1,6-Dioxaspiro[5.5]nonane Analogue for Cephalostatin 11” (2015).
In brackets after ≈: the same amount, converted by molar mass.

Tests used:
Format in all cases: functional
P388 = assay: Cytotoxicity against mouse P388 cells assessed as growth inhibition after 48 hrs by coulter particle counter analysis; conditions: P388, 48 h, read-out: ED50 (the source's name)
[1] = Cytotoxicity against human NCI60 cells
[2] = Cytotoxicity against human NCI60 cells by SRB assay

| SMILES | EC50 (P388) [µg/mL] | also measured |
| --- | --- | --- |
| CC1=C(CC[C@](C)(O)CO)O[C@H]2C[C@H]3[C@@H]4CC[C@H]5CC(=O)CC[C@]5(C)[C@H]4CC(=O)[C@]3(C)[C@@H]12 | 23.4 (≈ 52.6 µM) | – |
| C[C@@H]1[C@]2(O[C@H]3C=C4[C@@H]5CC[C@H]6Cc7nc8c(nc7C[C@]6(C)[C@H]5C[C@@H](O)[C@]4(C)[C@]31O)C[C@@H]1CC[C@H]3C4=CC[C@@H]5[C@H](C)[C@@]6(OC[C@]45C(=O)C[C@@H]3[C@@]1(C)C8)OC(C)(C)C[C@H]6O)O[C@](C)(CO)C[C@H]2O [CEPHALOSTATIN 1] | – | GI50 [1]: 1.8 nM |
| CC(=O)OC[C@]1(C)CC[C@@]2(O[C@H]3C[C@H]4[C@@H]5CC[C@H]6CC(=O)CC[C@]6(C)[C@H]5CC(=O)[C@]4(C)[C@H]3[C@@H]2C)O1 | > 10 | – |
| C[C@@H]1[C@]2(O[C@H]3C=C4[C@@H]5CC[C@H]6Cc7nc8c(nc7C[C@]6(C)[C@H]5C[C@@H](O)[C@]4(C)[C@]31O)C[C@@H]1CC[C@H]3C4=C[C@@H]5O[C@]6(CCC(C)(C)O6)[C@@H](C)[C@@H]5[C@@]4(C)[C@H](O)C[C@@H]3[C@@]1(C)C8)O[C@](C)(CO)C[C@H]2O | – | GI50 [2]: 14 nM |
| C[C@@H]1[C@]2(O[C@H]3C=C4[C@@H]5CC[C@H]6Cc7nc8c(nc7C[C@]6(C)[C@H]5C[C@@H](O)[C@]4(C)[C@]31O)C[C@@H]1CC[C@H]3C4=C[C@@H]5O[C@]6(CCC(C)(C)O6)[C@@H](C)[C@@H]5[C@@]4(C)[C@H](O)C[C@@H]3[C@@]1(C)C8)O[C@@](C)(CO)C[C@H]2O | – | GI50 [2]: 0.48 nM |
| C=C(C)CCC1=C(C)[C@H]2[C@H](C[C@H]3[C@@H]4CC[C@H]5CC(=O)CC[C@]5(C)[C@H]4CC(=O)[C@@]32C)O1 | 14.5 (≈ 35.3 µM) | – |
| CC(=O)OC[C@@](C)(O)CCC1=C(C)[C@H]2[C@H](C[C@H]3[C@@H]4CC[C@H]5CC(=O)CC[C@]5(C)[C@H]4CC(=O)[C@@]32C)O1 | 19.3 (≈ 39.7 µM) | – |
| CC(=O)O[C@H]1CC[C@@]2(C)[C@@H](CC[C@@H]3[C@@H]2CC(=O)[C@@]2(C)[C@H]3C[C@@H]3OC(CCC(C)CCl)=C(C)[C@@H]32)C1 (some centres undefined) | > 100 | – |
| CC1=C(CCC(C)CCl)O[C@H]2C[C@H]3[C@@H]4CC[C@H]5CC(=O)CC[C@]5(C)[C@H]4CC(=O)[C@]3(C)[C@@H]12 (some centres undefined) | > 100 | – |
